Results published in patent US10233173B2, “Substituted 1,2,3-triazoles as NR2B-selective NMDA modulators” (JANSSEN PHARMACEUTICA NV, priority 2016, dated 2019).

Each molecule was assayed against human GluN1/GluN2B NMDA receptors (Homo sapiens, UniProt Q05586+Q13224) (assay: Cell-based calcium flux (FLIPR) assay on cloned human NR1/NR2B ion channels expressed in mammalian cells). Settings: standard assay; glutamate at ~EC80; FLIPR calcium flux.
Outline: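 Calcium influx followed by FLIPR fluorescence after 5 min compound exposure and a further 5 min co-agonist challenge: 10 μM glycine with glutamate at ~EC80 (standard) or EC40 (HTS).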

Chain of human GluN1/GluN2B NMDA receptors (Q13224 27-1484, other chains not shown): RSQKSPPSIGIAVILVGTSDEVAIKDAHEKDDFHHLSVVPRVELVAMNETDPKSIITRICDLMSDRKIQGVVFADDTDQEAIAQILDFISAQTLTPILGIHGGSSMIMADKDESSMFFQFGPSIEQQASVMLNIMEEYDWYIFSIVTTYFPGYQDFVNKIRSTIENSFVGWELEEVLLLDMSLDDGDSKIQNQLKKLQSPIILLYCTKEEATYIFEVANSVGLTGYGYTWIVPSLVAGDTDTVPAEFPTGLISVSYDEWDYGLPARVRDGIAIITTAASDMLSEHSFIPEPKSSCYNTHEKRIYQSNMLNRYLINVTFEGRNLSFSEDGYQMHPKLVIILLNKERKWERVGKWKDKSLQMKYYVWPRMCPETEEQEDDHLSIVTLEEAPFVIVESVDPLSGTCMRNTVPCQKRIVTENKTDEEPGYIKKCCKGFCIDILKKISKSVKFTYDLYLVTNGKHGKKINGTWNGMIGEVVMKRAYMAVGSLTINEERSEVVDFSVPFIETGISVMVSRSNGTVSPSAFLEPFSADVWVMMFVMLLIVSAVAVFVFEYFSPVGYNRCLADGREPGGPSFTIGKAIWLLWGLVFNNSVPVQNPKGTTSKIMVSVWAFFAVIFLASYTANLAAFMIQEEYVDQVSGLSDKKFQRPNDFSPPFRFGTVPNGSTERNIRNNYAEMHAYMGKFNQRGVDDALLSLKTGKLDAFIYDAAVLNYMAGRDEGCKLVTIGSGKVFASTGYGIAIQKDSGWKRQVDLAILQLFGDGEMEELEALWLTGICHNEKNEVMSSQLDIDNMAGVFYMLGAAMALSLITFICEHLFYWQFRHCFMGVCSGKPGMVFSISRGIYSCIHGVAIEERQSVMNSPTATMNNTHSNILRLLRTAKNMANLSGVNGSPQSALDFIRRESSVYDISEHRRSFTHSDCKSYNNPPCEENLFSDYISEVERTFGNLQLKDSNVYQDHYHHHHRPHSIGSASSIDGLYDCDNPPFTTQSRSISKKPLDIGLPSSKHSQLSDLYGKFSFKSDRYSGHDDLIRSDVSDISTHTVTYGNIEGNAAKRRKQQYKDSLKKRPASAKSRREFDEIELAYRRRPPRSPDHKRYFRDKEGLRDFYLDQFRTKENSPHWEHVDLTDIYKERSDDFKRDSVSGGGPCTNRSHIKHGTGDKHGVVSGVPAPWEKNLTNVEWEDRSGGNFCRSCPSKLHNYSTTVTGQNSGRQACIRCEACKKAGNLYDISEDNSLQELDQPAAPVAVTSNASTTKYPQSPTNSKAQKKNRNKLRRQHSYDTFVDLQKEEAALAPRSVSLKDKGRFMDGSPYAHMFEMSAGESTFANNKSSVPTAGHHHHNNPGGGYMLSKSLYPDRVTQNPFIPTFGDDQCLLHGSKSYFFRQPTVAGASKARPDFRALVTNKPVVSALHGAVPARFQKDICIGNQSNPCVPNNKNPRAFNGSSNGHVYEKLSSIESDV

First: Cc1nc(OCc2cn(-c3ccc(F)c(C)c3F)nn2)ncc1F [Example 649, 2-[[1-(2,4-Difluoro-3-methyl-phenyl)triazol-4-yl]methoxy]-5-fluoro-4-methyl-pyrimidine]
Second: Cc1nc(OCc2cn(-c3ccc(F)c(OC(F)F)c3)nn2)ncc1F [Example 493, 2-[[1-[3-(Difluoromethoxy)-4-fluoro-phenyl]triazol-4-yl]methoxy]-5-fluoro-4-methyl-pyrimidine]
The IC50 of the first is 38-fold higher: 0.152 µM for the first, 0.004 µM for the second.

Compared with `Cc1c(COc2ncc(Cl)cn2)nnn1-c1cccc(C(F)F)c1` [Example 529, 5-Chloro-2-[[1-[3-(difluoromethyl)phenyl]-5-methyl-triazol-4-yl]methoxy]pyrimidine], `Cc1cccc(-n2cc(COc3ncc(Cl)cn3)nn2)n1` [Example 659, 5-Chloro-2-[[1-(6-methyl-2-pyridyl)triazol-4-yl]methoxy]pyrimidine] is higher in IC50: 1.32 µM for the first, over 2.99 µM for the second.

Going from `CC(C)(O)c1cnc(OCc2cn(-c3cccc(Cl)c3F)nn2)nc1` [Example 615, 2-[2-[[1-(3-Chloro-2-fluoro-phenyl)triazol-4-yl]methoxy]pyrimidin-5-yl]propan-2-ol] to `Cc1cnc(OCc2cn(-c3ccc(F)c(F)c3)nn2)nc1` [Example 601, 2-[[1-(3,4-Difluorophenyl)triazol-4-yl]methoxy]-5-methyl-pyrimidine], the IC50 falls from 4.66 µM to 0.048 µM (97-fold). The second is the more potent here.

`CN(C)c1ccnc(OCc2cn(-c3ccc(F)c(C(F)(F)F)c3)nn2)n1` [Example 450, 2-[[1-[4-Fluoro-3-(trifluoromethyl)phenyl]triazol-4-yl]methoxy]-N,N-dimethyl-pyrimidin-4-amine] and `CNc1ccnc(OCc2cn(-c3ccc(F)c(C(C)(F)F)c3)nn2)n1` [Example 581, 2-[[1-[3-(1,1-Difluoroethyl)-4-fluoro-phenyl]triazol-4-yl]methoxy]-N-methyl-pyrimidin-4-amine] are within 1.5-fold of each other in IC50: 0.03 µM for the first, 0.033 µM for the second.

Going from `Cc1nc(OCc2cn(-c3ccc(F)c(OC(F)F)c3)nn2)ncc1Cl` [Example 513, 5-Chloro-2-[[1-[3-(difluoromethoxy)-4-fluoro-phenyl]triazol-4-yl]methoxy]-4-methyl-pyrimidine] to `CCc1ccnc(OCc2cn(-c3ccc(F)c(OC(F)F)c3)nn2)n1` [Example 495, 2-f[[1-[3-(Difluoromethoxy)-4-fluoro-phenyl]triazol-4-yl]methoxy]-4-ethyl-pyrimidine], the IC50 rises from 0.004 µM to 0.01 µM (2.5-fold). The first is the more potent here.

Going from `Cc1cnc(OCc2cn(-c3ccc(F)c(C(C)(F)F)c3)nn2)nc1N` [Example 576, 2-[[1-[3-(1,1-Difluoroethyl)-4-fluoro-phenyl]triazol-4-yl]methoxy]-5-methyl-pyrimidin-4-amine] to `CNc1nc(OCc2cn(-c3ccc(F)c(C(C)(F)F)c3)nn2)ncc1F` [Example 578, 2-[[1-[3-(1,1-Difluoroethyl)-4-fluoro-phenyl]triazol-4-yl]methoxy]-5-fluoro-N-methyl-pyrimidin-4-amine], the IC50 rises from 0.017 µM to 0.14 µM (8.2-fold).

`Cc1cc(-n2cc(COc3ncc(F)cn3)nn2)ccc1F` [Example 474, 5-Fluoro-2-[[1-(4-fluoro-3-methyl-phenyl)triazol-4-yl]methoxy]pyrimidine] was tested, and the IC50 was 0.022 µM.

Same assay, conditions: standard assay; human GluN1/GluN2B, calcium flux (FLIPR), glutamate ~EC80

In order of rising IC50:
1. Cc1cccc(-n2cc(COc3ncc(C)c(C)n3)nn2)c1 [Example 251, 4,5-Dimethyl-2-[[1-(m-tolyl)triazol-4-yl]methoxy]pyrimidine]  0.002 µM
2. CCc1cnc(OCc2cn(-c3cccc(C(F)F)c3)nn2)nc1 [Example 91, 2-[[1-[3-(Difluoromethyl)phenyl]triazol-4-yl]methoxy]-5-ethyl-pyrimidine]  0.004 µM
3. COc1cnc(OCc2cn(-c3ccc(F)c(C(C)(F)F)c3)nn2)nc1 [Example 68, 2-[[1-[3-(1,1-Difluoroethyl)-4-fluoro-phenyl]triazol-4-yl]methoxy]-5-methoxy-pyrimidine]  0.007 µM
4. OCc1ccnc(OCc2cn(-c3ccc(Cl)c(OC(F)F)c3)nn2)n1 [Example 383, [2-[[1-[4-Chloro-3-(difluoromethoxy)phenyl]triazol-4-yl]methoxy]pyrimidin-4-yl]methanol]  0.008 µM
5. COCc1ccnc(OCc2cn(-c3cccc(C(C)(F)F)c3)nn2)n1 [Example 300, 2-[[1-[3-(1,1-Difluoroethyl)phenyl]triazol-4-yl]methoxy]-4-(methoxymethyl)pyrimidine]  0.008 µM
6. CC(C)c1cccc(-n2cc(COc3ncc(Cl)cn3)nn2)c1 [Example 265, 5-Chloro-2-[[1-(3-isopropylphenyl)triazol-4-yl]methoxy]pyrimidine]  0.016 µM
7. FC(F)Oc1cc(-n2cc(COc3ncc(N4CCC4)cn3)nn2)ccc1Cl [Example 391, 5-(Azetidin-1-yl)-2-((1-(4-chloro-3-(difluoromethoxy)phenyl)-1H-1,2,3-triazol-4-yl)methoxy)pyrimidine]  0.022 µM
8. CC(Oc1ncc(Cl)cn1)c1cn(-c2ccc(Cl)c(OC(F)F)c2)nn1 (racemic) [Example 60, (R/S)-5-Chloro-2-[1-[1-[4-chloro-3-(difluoromethoxy)phenyl]triazol-4-yl]ethoxy]pyrimidine]  0.032 µM
9. CC(O)c1cnc(OCc2cn(-c3cccc(C(C)(F)F)c3)nn2)nc1 (racemic) [Example 310, (R/S)-1-[2-[[1-[3-(1,1-Difluoroethyl)phenyl]triazol-4-yl]methoxy]pyrimidin-5-yl]ethanol]  0.037 µM
10. Cc1cc(C)nc(OCc2cn(-c3ccc(F)c(Br)c3)nn2)n1 [Example 18, 2-[[1-(3-Bromo-4-fluoro-phenyl)triazol-4-yl]methoxy]-4,6-dimethyl-pyrimidine]  0.082 µM
11. COc1cnc(OCc2cn(-c3ccc(Cl)c(OCCF)c3)nn2)nc1 [Example 193, 2-[[1-[4-Chloro-3-(2-fluoroethoxy)phenyl]triazol-4-yl]methoxy]-5-methoxy-pyrimidine]  0.089 µM
12. CCc1cnc(OCc2cn(-c3ccc(C)cc3)nn2)nc1 [Example 261, 5-Ethyl-2-[[1-(p-tolyl)triazol-4-yl]methoxy]pyrimidine]  0.093 µM
13. Cc1cnc(N[C@H](C)c2cn(-c3ccc(Cl)c(OC(F)F)c3)nn2)nc1 [Example 224, N-[(1R)-1-[1-[4-Chloro-3-(difluoromethoxy)phenyl]triazol-4-yl]ethyl]-5-methyl-pyrimidin-2-amine]  0.121 µM
14. FC(F)c1cccc(-n2cc(COc3nccc(C4CC4)n3)nn2)c1 [Example 283, 4-Cyclopropyl-2-[[1-[3-(difluoromethyl)phenyl]triazol-4-yl]methoxy]pyrimidine]  0.169 µM
15. OCc1cnc(OCc2cn(-c3cccc(C(F)F)c3)nn2)nc1 [Example 160, [2-[[1-[3-(Difluoromethyl)phenyl]triazol-4-yl]methoxy]pyrimidin-5-yl]methanol]  0.173 µM
16. COCc1ccnc(OCc2cn(-c3cccc(C)c3)nn2)n1 [Example 250, 4-(Methoxymethyl)-2-[[1-(m-tolyl)triazol-4-yl]methoxy]pyrimidine]  0.249 µM
17. OCc1ccnc(OCc2cn(-c3cccc(C(F)F)c3)nn2)n1 [Example 159, [2-[[1-[3-(Difluoromethyl)phenyl]triazol-4-yl]methoxy]pyrimidin-4-yl]methanol]  0.408 µM
18. Fc1cnc(OCc2cn(-c3cccc(F)c3)nn2)nc1 [Example 229, 5-Fluoro-2-[[1-(3-fluorophenyl)triazol-4-yl]methoxy]pyrimidine]  2.98 µM
